Reference: US20250340574A1, “MODULATORS OF CYSTIC FIBROSIS TRANSMEMBRANE CONDUCTANCE REGULATOR” (Vertex Pharmaceuticals Incorporated, priority 2022, published 2025)

What was measured:
[1] = target: T1, CFTR (F508del/MF-HBE cells) (Homo sapiens, UniProt P13569, DEL508-508); assay: Ussing chamber assay of CFTR-mediated short-circuit currents, Assay D (single concentration of 1 μM); type: cell-based; conditions: with 44 nM potentiator and 18 μM Tezacaftor, 18-24 hours, 20% human serum
T1 construct: human bronchial epithelial (HBE) cells derived from CF subjects heterozygous for F508del and a minimal function CFTR mutation (F508del/MF-HBE); endogenous in cells; host or cells: Primary human bronchial epithelial cells from CF subjects (F508del/MF genotype), differentiated at an air-liquid interface
T1 sequence (P13569 with tags, fused parts or gaps DEL508-508): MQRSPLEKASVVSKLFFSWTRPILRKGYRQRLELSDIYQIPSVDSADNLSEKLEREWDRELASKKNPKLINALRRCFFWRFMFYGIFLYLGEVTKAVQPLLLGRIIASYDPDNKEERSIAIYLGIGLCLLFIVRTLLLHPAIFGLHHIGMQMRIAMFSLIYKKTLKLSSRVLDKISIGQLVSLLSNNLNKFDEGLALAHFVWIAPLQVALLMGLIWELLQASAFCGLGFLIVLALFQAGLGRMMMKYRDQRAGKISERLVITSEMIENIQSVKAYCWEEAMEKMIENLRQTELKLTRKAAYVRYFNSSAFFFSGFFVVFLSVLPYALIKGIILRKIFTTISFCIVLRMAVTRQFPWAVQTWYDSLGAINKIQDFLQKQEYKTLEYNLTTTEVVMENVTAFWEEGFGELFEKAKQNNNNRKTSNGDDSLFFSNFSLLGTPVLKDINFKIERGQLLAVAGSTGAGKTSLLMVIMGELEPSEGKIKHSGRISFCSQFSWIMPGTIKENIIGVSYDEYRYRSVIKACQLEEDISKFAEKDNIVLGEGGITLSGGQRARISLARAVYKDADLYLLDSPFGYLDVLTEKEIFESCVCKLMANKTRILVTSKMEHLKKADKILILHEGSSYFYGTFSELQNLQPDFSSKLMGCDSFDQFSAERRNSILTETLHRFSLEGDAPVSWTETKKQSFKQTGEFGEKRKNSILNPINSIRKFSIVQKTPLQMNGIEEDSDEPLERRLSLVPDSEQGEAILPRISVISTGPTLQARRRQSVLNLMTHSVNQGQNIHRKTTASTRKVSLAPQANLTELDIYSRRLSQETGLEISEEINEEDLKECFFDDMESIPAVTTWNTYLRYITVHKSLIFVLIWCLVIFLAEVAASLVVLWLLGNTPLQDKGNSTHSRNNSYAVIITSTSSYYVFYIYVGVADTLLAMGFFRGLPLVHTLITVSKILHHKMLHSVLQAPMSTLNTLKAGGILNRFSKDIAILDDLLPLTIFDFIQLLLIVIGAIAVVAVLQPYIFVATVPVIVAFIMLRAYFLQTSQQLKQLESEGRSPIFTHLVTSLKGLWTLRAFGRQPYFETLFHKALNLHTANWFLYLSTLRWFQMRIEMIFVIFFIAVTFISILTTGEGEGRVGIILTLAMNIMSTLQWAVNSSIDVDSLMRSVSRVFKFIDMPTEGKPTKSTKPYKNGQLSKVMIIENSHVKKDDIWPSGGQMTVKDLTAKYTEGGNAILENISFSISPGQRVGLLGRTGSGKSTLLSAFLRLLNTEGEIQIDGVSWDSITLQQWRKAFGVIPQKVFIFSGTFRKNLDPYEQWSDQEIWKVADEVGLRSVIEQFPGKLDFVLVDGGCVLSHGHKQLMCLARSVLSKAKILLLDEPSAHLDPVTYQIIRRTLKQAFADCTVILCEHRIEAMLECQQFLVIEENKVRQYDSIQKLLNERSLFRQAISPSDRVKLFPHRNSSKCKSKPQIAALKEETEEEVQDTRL
Description: (§1) Ussing chamber experiments were performed using human bronchial epithelial (HBE) cells derived from CF subjects heterozygous for F508del and a minimal function CFTR mutation (F508del/MF-HBE) and cultured as previously described (Neuberger T, Burton B, Clark H, Van Goor F Methods Mol Biol 2011:741:39-54). After four days the apical media was removed, and the cells were grown at an air liquid interface for >14 days prior to use.
(§2) To isolate the CFTR-mediated short-circuit (ISC) current, F508del/MF-HBE grown on Costar® Snapwell™ cell culture inserts were mounted in an Ussing chamber and the transepithelial ISC was measured under voltage-clamp recording conditions (Vhold=0 mV) at 37° C. The basolateral solution contained (in mM) 145 NaCl, 0.83 K2HPO4, 3.3 KH2PO4, 1.2 MgCl2, 1.2 CaCl2, 10 Glucose, 10 HEPES (pH adjusted to 7.4 with NaOH) and the apical solution contained (in mM) 145 NaGluconate, 1.2 MgCl2, 1.2 CaCl2, 10 glucose, 10 HEPES (pH adjusted to 7.4 with NaOH) and 30 μM amiloride to block the epithelial sodium channel. Forskolin (20 μM) was added to the apical surface to activate CFTR, followed by apical addition of a CFTR inhibitor cocktail consisting of BPO, GlyH-101, and CFTR inhibitor 172 (each at 20 μM final assay concentration) to specifically isolate CFTR currents. The CFTR-mediated ISC (μA/cm^2) for each condition was determined from the peak forskolin response to the steady-state current following inhibition.
(§3) The activity of the CFTR corrector compounds on the CFTR-mediated ISC was determined in Ussing chamber studies as described above. The F508del/MF-HBE cell cultures were either incubated with the corrector compounds at a range of concentrations in combination with 33 nM (6R,12R)-17-amino-12-methyl-6,15-bis(trifluoromethyl)-13,19-dioxa-3,4,18-triazatricyclo[12.3.1.12,5]nonadeca-1(18),2,4,14,16-pentaen-6-ol and 18 μM Tezacaftor or were incubated with the corrector compounds at a single fixed concentration of 1 μM in combination with 44 nM (6R,12R)-17-amino-12-methyl-6,15-bis(trifluoromethyl)-13,19-dioxa-3,4,18-triazatricyclo[12.3.1.12,5]nonadeca-1(18),2,4,14,16-pentaen-6-ol and 18 μM Tezacaftor for 18-24 hours at 37° C. and in the presence of 20% human serum. The concentration of corrector compounds with 44 nM or 33 nM (6R,12R)-17-amino-12-methyl-6,15-bis(trifluoromethyl)-13,19-dioxa-3,4,18-triazatricyclo[12.3.1.12,5]nonadeca-1(18),2,4,14,16-pentaen-6-ol and 18 μM Tezacaftor during the 18-24 hours incubations was kept constant throughout the Ussing chamber measurement of the CFTR-mediated ISC to ensure compounds were present throughout the entire experiment. The efficacy and potency of the putative F508del correctors was compared to that of the known Vertex corrector, (14S)-8-[3-(2-{Dispiro[2.0.2.1]heptan-7-yl}ethoxy)-1H-pyrazol-1-yl]-12,12-dimethyl-2λ^6-thia-3,9,11,18,23-pentaazatetracyclo[17.3.1.111,14.05,10]tetracosa-1(22),5,7,9,19(23),20-hexaene-2,2,4-trione, in combination with 18 μM Tezacaftor and 1 μM Ivacaftor.
(§4) • Assay A: 0.1 μM to 25 μM, 6 concentrations • Assay B: 0.00001 μM to 25 μM, 12 concentrations • Assay C: 0.026 μM to 25 μM, 6 concentrations • Assay D: Activity at single concentration of 1 μM

[2] = target: T1, CFTR (F508del/MF-HBE cells); assay: Ussing chamber assay of CFTR-mediated short-circuit currents, Assay C (0.026 μM to 25 μM, 6 concentrations); type: cell-based; conditions: with 33 nM potentiator and 18 μM Tezacaftor, 20% human serum; for Emax: read-out: C Max activity (%)
Description: as §1, §2, §3, §4

D activity at 1 μM (%) [1] | EC50 [2] | Emax [2] | Compound
+++ (+++ is >60%) |  |  | Cc1cccc(C(C)C)c1-c1nc2nc(c1C)OC[C@@H](CC(C)(C)C)N(Cc1cnc3oc(C(C)C)cc3n1)C(=O)c1cccc(c1)S(=O)(=O)N2 (atropisomer, axis not shown) [Compound I-135]
+++ (+++ is >60%) |  |  | Cc1cccc(C(C)C)c1-c1nc2nc(c1C)OC[C@@H](CC(C)(C)C)N(Cc1cnc3oc(C(C)C)cc3n1)C(=O)c1cccc(c1)S(=O)(=O)N2 (atropisomer, axis not shown) [Compound I-136]
+++ (+++ is >60%) |  |  | Cc1cccc(C(C)C)c1-c1nc2nc(c1C)OC[C@@H](CC(C)(C)C)N(Cc1cnc3cc(C(C)C)n(C)c3n1)C(=O)c1cccc(c1)S(=O)(=O)N2 (atropisomer, axis not shown) [Compound I-180]
+++ (+++ is >60%) |  |  | Cc1cccc(CCC(C)C)c1-c1nc2nc(c1C)OC[C@@H](CC(C)(C)C)N(Cc1cnc3oc(C4CC4)cc3n1)C(=O)c1cccc(c1)S(=O)(=O)N2 (atropisomer, axis not shown) [Compound I-205]
+++ (+++ is >60%) |  |  | Cc1cccc(CC(C)C)c1-c1nc2nc(c1C)OC[C@@H](CC(C)(C)C)N(Cc1cnc3oc(C(C)(C)C)cc3n1)C(=O)c1cccc(c1)S(=O)(=O)N2 (atropisomer, axis not shown) [Compound I-238]
+++ (+++ is >60%) |  |  | Cc1cccc(OC(C)C)c1-c1nc2nc(c1C)OC[C@@H](CC(C)(C)C)N(Cc1cnc3cc(C(C)(C)C)n(C)c3n1)C(=O)c1cccc(c1)S(=O)(=O)N2 (atropisomer, axis not shown) [Compound I-261]
+++ (+++ is >60%) |  |  | Cc1cccc(C)c1-c1cc2nc(n1)NS(=O)(=O)c1cccc(c1)C(=O)N(Cc1cnc3oc(C(C)C)cc3n1)[C@H](CC1CCCO1)CO2 (single isomer, unassigned) [Compound I-22]
+++ (+++ is >60%) |  |  | Cc1cccc(C)c1-c1cc2nc(n1)NS(=N)(=O)c1cccc(c1)C(=O)N(Cc1cnc3oc(C4CC4)cc3n1)[C@H](CC(C)(C)C)CO2 (single isomer, unassigned) [Compound I-147]
 | 1 to 3 µM | > 60% | Cc1cccc(C)c1-c1cc2nc(n1)NS(=O)(=O)c1cccc(c1)C(=O)N(Cc1cnc3cc(C4(C(F)(F)F)CC4)n(C)c3n1)[C@H](COC(C)C)CO2 [IV-74]
 | 1 to 3 µM | 30 to 60% | Cc1cccc(C)c1-c1cc2nc(n1)NS(=O)(=O)c1cccc(c1)C(=O)N(Cc1cnc3cc(C4(C(F)(F)F)CC4)n(C)c3n1)[C@H](CC1(C)CC1)CO2 [IV-75]
 | < 1 µM | > 60% | COCCc1c(C(C)(C)C)n(C)c2nc(CN3C(=O)c4cccc(c4)S(=O)(=O)Nc4nc(cc(-c5c(C)cccc5C)n4)OC[C@H]3CC34CC(C3)C4)cnc12 [IV-82, (11R)-11-(1-bicyclo[1.1.1]pentanylmethyl)-12-[[6-tert-butyl-7-(2-methoxyethyl)-5-methyl-pyrrolo[2,3-b]pyrazin-3-yl]methyl]-6-(2,6-dimethylphenyl)-2,2-dioxo-9-oxa-2λ^6-thia-3,5,12,19-tetrazatricyclo[12.3.1.14,8]nonadeca-1(18),4(19),5,7,14,16-hexaen-13-one]
 | 1 to 3 µM | > 60% | Cc1cccc(C)c1-c1cc2nc(n1)NS(=O)(=O)c1cccc(c1)C(=O)N(Cc1cnc3oc(C(C)(C)C)cc3n1)[C@H](C[C@@H]1CCCO1)CO2 [IV-83]
 | 1 to 3 µM | > 60% | Cc1cccc(C)c1-c1cc2nc(n1)NS(=O)(=O)c1cccc(c1)C(=O)N(Cc1cnc3oc(C4(C)CC4)cc3n1)[C@H](C[C@@H]1CCCO1)CO2 [IV-84]
 | 1 to 3 µM | > 60% | Cc1cccc(C)c1-c1cc2nc(n1)NS(=O)(=O)c1cccc(c1)C(=O)N(Cc1cnc3oc(C(C)(C)C)cc3n1)[C@H](C[C@@H]1CCCCO1)CO2 [IV-85]
 | 3 to 30 µM | > 60% | Cc1cccc(C)c1-c1cc2nc(n1)NS(=O)(=O)c1cccc(c1)C(=O)N(Cc1cnc3oc(C4CC4)cc3n1)[C@H](C[C@@H]1CCCCO1)CO2 [IV-86]
 | 3 to 30 µM | > 60% | Cc1cccc(C)c1-c1cc2nc(n1)NS(=O)(=O)c1cccc(c1)C(=O)N(Cc1cnc3oc(C4(C)CC4)cc3n1)[C@H](C[C@@H]1CCCCO1)CO2 [IV-87]
 | 3 to 30 µM | > 60% | Cc1cccc(C)c1-c1cc2nc(n1)NS(=O)(=O)c1cccc(c1)C(=O)N(Cc1cnc3oc(C4(C)CC4)cc3n1)[C@H](C[C@H]1CCCCO1)CO2 [IV-88]
 | < 1 µM | > 60% | COCc1c(C(C)(C)C)n(C)c2nc(CN3C(=O)c4cccc(c4)S(=O)(=O)Nc4nc(cc(-c5c(C)cccc5C)n4)OC[C@H]3CC34CC(C3)C4)cnc12 [IV-89, (11R)-11-(1-bicyclo[1.1.1]pentanylmethyl)-12-[[6-tert-butyl-7-(methoxymethyl)-5-methyl-pyrrolo[2,3-b]pyrazin-3-yl]methyl]-6-(2,6-dimethylphenyl)-2,2-dioxo-9-oxa-2λ^6-thia-3,5,12,19-tetrazatricyclo[12.3.1.14,8]nonadeca-1(18),4(19),5,7,14,16-hexaen-13-one]
 | 1 to 3 µM | > 60% | CCc1cccc(CC)c1-c1nc2nc(c1C)OC[C@@H](CC(C)(C)C)N(Cc1cnc3cc(C4(C)CC4)n(C)c3n1)C(=O)c1cccc(c1)S(=O)(=O)N2 [IV-90]
 | < 1 µM | > 60% | CCc1cccc(CC)c1-c1nc2nc(c1C)OC[C@@H](CC(C)(C)C)N(Cc1cnc3cc(C(C)(C)C)n(C)c3n1)C(=O)c1cccc(c1)S(=O)(=O)N2 [IV-91]
 | 1 to 3 µM | > 60% | Cc1cccc(C)c1-c1cc2nc(n1)NS(=O)(=O)c1cccc(c1)C(=O)N(Cc1cnc3cc(C(C)(C)C(F)(F)F)n(C)c3n1)[C@H](COC(C)C)CO2 [IV-99]
 | < 1 µM | > 60% | Cc1cccc(CC(C)C)c1-c1nc2nc(c1C)OC[C@@H](COC(C)C)N(Cc1cnc3cc(C(C)(C)C(F)(F)F)n(C)c3n1)C(=O)c1cccc(c1)S(=O)(=O)N2 [IV-101]
 | 1 to 3 µM | > 60% | Cc1cccc(C)c1-c1cc2nc(n1)NS(=O)(=O)c1cccc(c1)C(=O)N(Cc1cnc3cc(C4(C(F)(F)F)CC4)n(C)c3n1)[C@H](C[C@@H]1CCCO1)CO2 [IV-103]
 | 1 to 3 µM | > 60% | COc1c2nc(nc1-c1c(C)cccc1C)NS(=O)(=O)c1cccc(c1)C(=O)N(Cc1cnc3cc(C4(C(F)(F)F)CC4)n(C)c3n1)[C@H](COC(C)C)CO2 [IV-104]
 | < 1 µM | > 60% | Cc1cccc(C)c1-c1nc2nc(c1C)OC[C@@H](C[C@@H]1CCCO1)N(Cc1cnc3cc(C4(C(F)(F)F)CC4)n(C)c3n1)C(=O)c1cccc(c1)S(=O)(=O)N2 [IV-105]
 | < 1 µM | > 60% | Cc1cccc(C)c1-c1nc2nc(c1C)OC[C@@H](C[C@H]1CCCO1)N(Cc1cnc3cc(C4(C(F)(F)F)CC4)n(C)c3n1)C(=O)c1cccc(c1)S(=O)(=O)N2 [IV-106]
